Data taken from US6525090B1, “Methods of treating mental diseases, inflammation and pain” (Neurosciences Research Foundation, Inc., priority 1996, dated 2003).

Assays:
[1] = target: T1, rat liver anandamide amidohydrolase (Rattus norvegicus, UniProt P97612); assay: Anandamide amidohydrolase assay, rat liver microsome fractions; assay type: biochemical
T1 construct: Anandamide amidohydrolase was measured in rat brain or rat liver microsome fractions; from tissue; host or cells: rat liver microsome fractions
T1 sequence (P97612 1-579): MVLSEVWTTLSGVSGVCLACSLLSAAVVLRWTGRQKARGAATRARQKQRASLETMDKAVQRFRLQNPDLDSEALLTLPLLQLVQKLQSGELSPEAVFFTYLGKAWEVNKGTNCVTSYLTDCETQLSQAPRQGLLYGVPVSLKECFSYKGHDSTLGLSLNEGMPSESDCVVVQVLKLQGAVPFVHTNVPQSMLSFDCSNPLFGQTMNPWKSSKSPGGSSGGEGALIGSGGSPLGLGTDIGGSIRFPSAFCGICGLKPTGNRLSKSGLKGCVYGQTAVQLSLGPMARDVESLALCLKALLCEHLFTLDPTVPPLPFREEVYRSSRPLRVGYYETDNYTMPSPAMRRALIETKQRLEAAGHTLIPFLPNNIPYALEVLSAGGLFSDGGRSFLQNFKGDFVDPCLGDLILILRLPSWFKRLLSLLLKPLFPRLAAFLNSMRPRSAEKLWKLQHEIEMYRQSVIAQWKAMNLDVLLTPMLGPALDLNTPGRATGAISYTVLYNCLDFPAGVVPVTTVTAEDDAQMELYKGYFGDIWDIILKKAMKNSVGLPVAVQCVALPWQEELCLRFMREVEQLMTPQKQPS
Description: Anandamide amidohydrolase was measured in rat brain or rat liver microsome fractions. […] After 10 min. of incubation, the reactions were stopped with cold methanol, the radiolabeled lipids extracted with chloroform, and the organic phases brought to dryness under a stream of N2 gas. The radioactive products were then fractionated by thin-layer chromatography (solvent system: chloroform/methanol/ammonia, 90:10:1 vol/vol/vol), collected by scraping appropriate areas of the chromatography plate, and quantified by liquid scintillation counting.

[2] = target: T2, anandamide amidohydrolase of intact astrocytes (Rattus norvegicus, UniProt P97612); assay: Assay in cultures of cortical astrocytes (anandamide amidohydrolase of intact cells); assay type: cell-based; details: rat cortical astrocyte cultures, 20 min incubation, 37° C., radiolabeled arachidonic acid or phospholipids measured; read-out: IC50, inhibition of anandamide amidohydrolase of intact astrocytes
T2 construct: endogenous in cells; host or cells: primary rat cortical astrocytes, 3 weeks in culture
T2 sequence (P97612 1-579): T1 sequence (P97612 1-579)
Description: Cultures of rat cortical astrocytes, essentially free of neurons, were prepared following the standard procedures described in Cadas et al., J. Neurosci. 16, 3934-3942 (1996), and used after 3 weeks in culture. […] The organic phases were dried, and analyzed as follows. To measure radiolabeled anandamide and arachidonic acid, the organic extracts were fractionated by silica gel G column chromatography, as described in Fontana et al., Prostaglandins Leukotrienes Essential Fatty Acids 53, 301-308 (1995). Radiolabeled anandamide and arachidonic acid were eluted from the column with a solvent system of chloroform/methanol (9:1, vol/vol), and further purified by thin-layer chromatography (solvent system of chloroform/methanol/ammonia, 80:20:1, vol/vol/vol). To measure radiolabeled phospholipids, which were formed in intact cells from the enzymatic esterification of radiolabeled arachidonic acid, the organic extracts were fractionated by thin-layer chromatography (solvent system of chloroform/methanol/ammonia/water, 65:25:4:1, vol/vol/vol/vol).

[3] = tested on: uptake of radiolabeled anandamide; assay: Uptake and intracellular level of radiolabeled anandamide in cortical astrocyte cultures; assay type: cell-based; details: rat cortical astrocyte cultures
[4] = target: rat brain anandamide amidohydrolase (Rattus norvegicus, UniProt P97612); assay: biochemical
Description: Anandamide amidohydrolase was measured in rat brain or rat liver microsome fractions. The fractions (0.1 mg of protein) were prepared following the protocols of Desarnaud et al., J. Biol. Chem. 270, 6030-6035 (1995), and were incubated in 50 mM Tris-Cl (pH 7.4) at 37° C., in the presence of radiolabeled anandamide obtained from New England Nuclear, Wilmington, Del., 221 Ci/mmol), plus various concentrations of test inhibitor (0.1-100 μM). After 10 min. of incubation, the reactions were stopped with cold methanol, the radiolabeled lipids extracted with chloroform, and the organic phases brought to dryness under a stream of N2 gas. The radioactive products were then fractionated by thin-layer chromatography (solvent system: chloroform/methanol/ammonia, 90:10:1 vol/vol/vol), collected by scraping appropriate areas of the chromatography plate, and quantified by liquid scintillation counting.

- inhibitory concentrations for liver enzyme relative to brain ([1]; liver versus brain anandamide amidohydrolase): more than 100 fold
- IC50 ([1]; rat liver microsome fractions, 10 min incubation, 37° C., pH 7.4, radiolabeled anandamide, read-out: IC50, inhibition of the liver enzyme): 97000 nM
- IC50 [2]: 500 nM
- IC50 [4]: 700 nM
SMILES: O=C1O/C(=C/Br)CCC1c1cccc2ccccc12 (stereo not drawn) [E-6-(bromomethylene)tetrahydro-3-(1-naphthalenyl)-2H-pyrane-2-one]
- inhibition of uptake of radiolabeled anandamide [3]: does not inhibit
- intracellular levels of radiolabeled anandamide ([3]; in the presence of the compound): greatly increased
